Experiments:
Phakopsora pachyrhizi [1] = assay: Greenhouse soybean rust test, plants at V6 stage, evaluated every 5 days; format: in vivo
Text: Recent tests carried out in greenhouses the laboratory of FMC Quimica do Brasil Ltda. in Uberaba, MG, Brazil, show the highly fungicidal effect of said specific imidazole and/or triazole derivatives in combating diseases of plants, particularly against the attack by the fungus Phakopsora pachyrhizi on soybeans, as described hereinafter. […]
Equipment: a manual sprayer commonly used in agriculture with 2-liter capacity.
Dosages: 50 to 500 grams per hectare of the active compound Fluconazole per liter diluted in water.
Evaluations of the Effectiveness of the Product: The evaluations were made every 5 days after application of the product, in a total of 4 evaluations. As an evaluation parameter one utilized the severity of the disease (percentage of foliar area attacked by rust) according to the diagrammatic scale of the EMBRAPA (FIG. 1). […]
Dosages: 50 to 500 grams per hectare of the active compound Itraconazole per liter diluted in water.

Phakopsora pachyrhizi [2] = assay: Field evaluation of fungicides for control of soybean asian rust, Rondonópolis, MT, Brazil; format: in vivo
Method: Results of the 2nd step with defined crops (Evaluation of efficiency of fungicides for controlling soybean asian rust caused by Phakopsora pachyrhizi in the State of Mato Grosso, Brazil)
Several fungicides were evaluated in the control of soybean asian rust (Table 1A). The experiment was effected in Rondonópolis, MT, Brazil, harvest 2005/06, in a commercial area with soybean cultivar. The experiment consisted of 13 treatments (Table 1A).
The experimental outlining was random, in blocks, with 13 treatments and 4 repetitions. Each plot consisted of 6 lines of 6 m, spaced 0.45 m.
The culture traits were suited to the good development of the soybean crop, uniformly applied in the whole experiment.
The spraying was effected in stadiums R3 and R5.1, with coast CO2 sprayer provided with a JA-02-type beak, under a pressure of 0.31 MPa (45 psi), using 110 L of broth per ha. At the first application, the plants were presenting the beginning of rust symptoms at their foliar areas.
The rust was evaluated by analysing the percentage of foliar area affected by the disease, according to Godoy et al., in the plants of the three central lines. Evaluationa related to soybean injury and severity were effected in 14 and 21 days after the first application (DDA), by means of visual observation of the leaves of the plot plants.

[3] = Dose 1000 P.C. mL ha^−1, 14 days after the first application
[4] = Dose 1000 P.C. mL ha^−1, 21 days after the first application

CC(=O)N1CCN(c2ccc(OC[C@H]3CO[C@](Cn4ccnc4)(c4ccc(Cl)cc4Cl)O3)cc2)CC1 (relative stereo) [Ketoconazole, cis-1-acetyl-4-(4-((2-(2,4-dichloro-phenyl)-2-(1H-imidazol-1-ylmethyl)-1,3-dioxolan-4-yl)methoxyl)phenyl)piperazine]
SEVERITY OF RUST (% IFA) 5 DAT (Phakopsora pachyrhizi [1]; 100 g ac/ha, soybeans): 27 % IFA | SEVERITY OF RUST (% IFA) 10 DAT (Phakopsora pachyrhizi [1]; 100 g ac/ha, soybeans): 20 % IFA | SEVERITY OF RUST (% IFA) 20 DAT (Phakopsora pachyrhizi [1]; 100 g ac/ha, soybeans): 45 % IFA | SEVERITY OF RUST (% IFA) 5 DAT (Phakopsora pachyrhizi [1]; 200 g ac/ha, soybeans): 10 % IFA | SEVERITY OF RUST (% IFA) 10 DAT (Phakopsora pachyrhizi [1]; 200 g ac/ha, soybeans): 8 % IFA | SEVERITY OF RUST (% IFA) 20 DAT (Phakopsora pachyrhizi [1]; 200 g ac/ha, soybeans): 18 % IFA | SEVERITY OF RUST (% IFA) 5 DAT (Phakopsora pachyrhizi [1]; 300 g ac/ha, soybeans): 10 % IFA | SEVERITY OF RUST (% IFA) 10 DAT (Phakopsora pachyrhizi [1]; 300 g ac/ha, soybeans): 6 % IFA | SEVERITY OF RUST (% IFA) 20 DAT (Phakopsora pachyrhizi [1]; 300 g ac/ha, soybeans): 16 % IFA | SEVERITY OF RUST (% IFA) 5 DAT (Phakopsora pachyrhizi [1]; 400 g ac/ha, soybeans): 11 % IFA | SEVERITY OF RUST (% IFA) 10 DAT (Phakopsora pachyrhizi [1]; 400 g ac/ha, soybeans): 7 % IFA | SEVERITY OF RUST (% IFA) 20 DAT (Phakopsora pachyrhizi [1]; 400 g ac/ha, soybeans): 15 % IFA | SEVERITY OF RUST (% IFA) 5 DAT (Phakopsora pachyrhizi [1]; 500 g ac/ha, soybeans): 8 % IFA | SEVERITY OF RUST (% IFA) 10 DAT (Phakopsora pachyrhizi [1]; 500 g ac/ha, soybeans): 4 % IFA | SEVERITY OF RUST (% IFA) 20 DAT (Phakopsora pachyrhizi [1]; 500 g ac/ha, soybeans): 11 % IFA | effectiveness for controlling soybean rust (Phakopsora pachyrhizi [1]; from the dose of 200 grams of active ingredients per hectare): imparts effectiveness for controlling soybean rust | Severity - affected foliar area (%) 14 DAA (Phakopsora pachyrhizi [2]; [3]): 2.0% | Severity - affected foliar area (%) 21 DAA (Phakopsora pachyrhizi [2]; [4]): 7.0%

OC(Cn1cncn1)(Cn1cncn1)c1ccc(F)cc1F [Fluconazole, alpha-(2,4-difluorophenyl)-alpha-(1H-1,2,4-trizole-1-ylmethyl)-1H-1,2,4-trizole-1-ethanol]
SEVERITY OF RUST (% IFA) 5 DAT (Phakopsora pachyrhizi [1]; Table 2: 50 g ac/ha, soybean): 5 % IFA | SEVERITY OF RUST (% IFA) 10 DAT (Phakopsora pachyrhizi [1]; Table 2: 50 g ac/ha, soybean): 10 % IFA | SEVERITY OF RUST (% IFA) 15 DAT (Phakopsora pachyrhizi [1]; Table 2: 50 g ac/ha, soybean): 12 % IFA | SEVERITY OF RUST (% IFA) 20 DAT (Phakopsora pachyrhizi [1]; Table 2: 50 g ac/ha, soybean): 12 % IFA | SEVERITY OF RUST (% IFA) 5 DAT (Phakopsora pachyrhizi [1]; Table 2: 100 g ac/ha, soybean): 5 % IFA | SEVERITY OF RUST (% IFA) 10 DAT (Phakopsora pachyrhizi [1]; Table 2: 100 g ac/ha, soybean): 7 % IFA | SEVERITY OF RUST (% IFA) 15 DAT (Phakopsora pachyrhizi [1]; Table 2: 100 g ac/ha, soybean): 10 % IFA | SEVERITY OF RUST (% IFA) 20 DAT (Phakopsora pachyrhizi [1]; Table 2: 100 g ac/ha, soybean): 11 % IFA | SEVERITY OF RUST (% IFA) 5 DAT (Phakopsora pachyrhizi [1]; Table 2: 150 g ac/ha, soybean): 4 % IFA | SEVERITY OF RUST (% IFA) 10 DAT (Phakopsora pachyrhizi [1]; Table 2: 150 g ac/ha, soybean): 6 % IFA | SEVERITY OF RUST (% IFA) 15 DAT (Phakopsora pachyrhizi [1]; Table 2: 150 g ac/ha, soybean): 9 % IFA | SEVERITY OF RUST (% IFA) 20 DAT (Phakopsora pachyrhizi [1]; Table 2: 150 g ac/ha, soybean): 10 % IFA | SEVERITY OF RUST (% IFA) 5 DAT (Phakopsora pachyrhizi [1]; Table 2: 250 g ac/ha, soybean): 3 % IFA | SEVERITY OF RUST (% IFA) 10 DAT (Phakopsora pachyrhizi [1]; Table 2: 250 g ac/ha, soybean): 7 % IFA | SEVERITY OF RUST (% IFA) 15 DAT (Phakopsora pachyrhizi [1]; Table 2: 250 g ac/ha, soybean): 11 % IFA | SEVERITY OF RUST (% IFA) 20 DAT (Phakopsora pachyrhizi [1]; Table 2: 250 g ac/ha, soybean): 10 % IFA | SEVERITY OF RUST (% IFA) 5 DAT (Phakopsora pachyrhizi [1]; Table 2: 500 g ac/ha, soybean): 0 % IFA | SEVERITY OF RUST (% IFA) 10 DAT (Phakopsora pachyrhizi [1]; Table 2: 500 g ac/ha, soybean): 0 % IFA | SEVERITY OF RUST (% IFA) 15 DAT (Phakopsora pachyrhizi [1]; Table 2: 500 g ac/ha, soybean): 2 % IFA | SEVERITY OF RUST (% IFA) 20 DAT (Phakopsora pachyrhizi [1]; Table 2: 500 g ac/ha, soybean): 4 % IFA | effective in controlling soybean rust (Phakopsora pachyrhizi [1]; from 50 grams of active ingredient per hectare): effective in controlling soybean rust | Severity - affected foliar area (%) 14 DAA (Phakopsora pachyrhizi [2]; Dose 500 P.C. mL ha^−1, 14 days after the first application): 0.6% | Severity - affected foliar area (%) 21 DAA (Phakopsora pachyrhizi [2]; Dose 500 P.C. mL ha^−1, 21 days after the first application): 4.0% | Severity - affected foliar area (%) 14 DAA (Phakopsora pachyrhizi [2]; Dose 750 P.C. mL ha^−1, 14 days after the first application): 0.5% | Severity - affected foliar area (%) 21 DAA (Phakopsora pachyrhizi [2]; Dose 750 P.C. mL ha^−1, 21 days after the first application): 2.0% | Severity - affected foliar area (%) 14 DAA (Phakopsora pachyrhizi [2]; [3]): 0.4% | Severity - affected foliar area (%) 21 DAA (Phakopsora pachyrhizi [2]; [4]): 1.5%

From patent publication US20080287299A1, “Use of Imidazole and/or Triazole Derivatives for Combating Plant Pests; as Well as Method for Controlling Diseases/Insects/Mites/Nematodes and Weeds, Particularly Foliar and/or Soil Diseases” (priority 2005, published 2008)
